34 compounds from patent US10730889B2, “Amido spirocyclic amide and sulfonamide derivatives” (Forma TM, LLC, priority 2012, dated 2020) can be followed below.

pIC50: −log10 of the molar value.

For the first test, the system named is A2780 cells. Briefly: In-vitro cell proliferation assay (SRB, 72 hours). The following applies: Homo sapiens, A2780, 72 h, A2780 cells, 72 hours, SRB; read-out: Cell Proliferation (IC50). It counts as cell-based.
Take `Cc1ccc(C(=O)N2CCC3(CC2)CC3CNC(=O)c2cc3ccncc3o2)nc1` (stereo not shown) [Example 341, N-[[6-(5-methylpyridine-2-carbonyl)-6-azaspiro[2.5]octan-2-yl)methyl]furo[2,3-c]pyridine-2-carboxamide]: the pIC50 is 6.14.

On to `Cc1cccc2nc(C(=O)N3CCC4(CC3)CC4CNC(=O)c3cc4ccncc4o3)cn12` (stereo not shown) [Example 311, N-[[6-(5-methylimidazo[1,2-a]pyridine-2-carbonyl)-6-azaspiro[2.5]octan-2-yl]methyl]furo[2,3-c]pyridine-2-carboxamide], for which the pIC50 was 7.92.

For `O=C(NCC1CC12CCN(C(=O)NCc1ccc(F)cc1)CC2)c1cc2ccncc2o1` (stereo not shown) [Example 163, N-[[6-[(4-fluorophenyl)methylcarbamoyl]-6-azaspiro[2.5]octan-2-yl]methyl]furo[2,3-c]pyridine-2-carboxamide], the pIC50 was 5.70. Turning to `NC(=O)Nc1ccc(C(=O)N2CCC3(CC2)CC3CNC(=O)c2cc3ccncc3o2)cc1` (stereo not shown) [Example 94, N-[[6-(4-ureidobenzoyl)-6-azaspiro[2.5]octan-2-yl]methyl]furo[2,3-c]pyridine-2-carboxamide], the pIC50 was 6.36. With `O=C(NCC1CC12CCN(C(=O)c1ccc3[nH]nnc3c1)CC2)c1cc2ccncc2o1` (stereo not shown) [Example 238, N-[[6-(1H-benzotriazole-5-carbonyl)-6-azaspiro[2.5]octan-2-yl]methyl]furo[2,3-c]pyridine-2-carboxamide], the pIC50 was 6.04. The same measure, in the same setting: to `O=C(NCC1CC12CCN(C(=O)c1c[nH]nc1-n1cnnn1)CC2)c1cc2ccncc2o1` (stereo not shown) [Example 134, N-[[6-[3-(tetrazol-1-yl)-1H-pyrazole-4-carbonyl]-6-azaspiro[2.5]octan-2-yl]methyl]furo[2,3-c]pyridine-2-carboxamide] belongs 6.29; to `CN1CCN(c2ccc(C(=O)N3CCC4(CC3)CC4CNC(=O)c3cc4cnccc4[nH]3)cc2)CC1` (stereo not shown) [Example 363, N-[[6-[4-(4-methylpiperazin-1-yl)benzoyl]-6-azaspiro[2.5]octan-2-yl]methyl]-1H-pyrrolo[3,2-c]pyridine-2-carboxamide], 7.94; to `CN1CCN(Cc2ccc(C(=O)N3CCC4(CC3)CC4CNC(=O)c3cc4ccncc4o3)cc2)CC1` (stereo not shown) [Example 86, N-[[6-[4-[(4-methylpiperazin-1-yl)methyl]benzoyl]-6-azaspiro[2.5]octan-2-yl]methyl]furo[2,3-c]pyridine-2-carboxamide], 8.34. Turning to `O=C(Cc1cncnc1)N1CCC2(CC1)CC2CNC(=O)N1Cc2ccncc2C1` (stereo not shown) [Example 407, N-[[6-(2-pyrimidin-5-ylacetyl)-6-azaspiro[2.5]octan-2-yl]methyl]-1,3-dihydropyrrolo[3,4-c]pyridine-2-carboxamide], the pIC50 is 7.14. The same measure, in the same setting: to `CCCNC(=O)N1CCC2(CC1)CC2CNC(=O)c1cc2ccncc2o1` (stereo not shown) [Example 185, N-[[6-(propylcarbamoyl)-6-azaspiro[2.5]octan-2-yl]methyl]furo[2,3-c]pyridine-2-carboxamide] belongs 5.70; to `CCn1nc(C)cc1C(=O)N1CCC2(CC1)CC2CNC(=O)c1cc2ccncc2o1` (stereo not shown) [Example 137, N-[[6-(2-ethyl-5-methyl-pyrazole-3-carbonyl)-6-azaspiro[2.5]octan-2-yl]methyl]furo[2,3-c]pyridine-2-carboxamide], 6.94. On the same count and under the same terms, to `O=C(Cc1ccncc1)N1CCC2(CC1)CC2CNC(=O)N1Cc2ccncc2C1` (stereo not shown) [Example 190, N-[[6-[2-(4-pyridyl)acetyl]-6-azaspiro[2.5]octan-2-yl]methyl]-1,3-dihydropyrrolo[3,4-c]pyridine-2-carboxamide] belongs 7.29; to `O=C(NCC1CC12CCN(C(=O)c1ccc(-n3ccnc3)cc1)CC2)c1cc2ccncc2o1` (stereo not shown) [Example 253, N-[[6-(4-imidazol-1-ylbenzoy)-6-azaspiro[2.5]octan-2-yl]methyl]furo[2,3-c]pyridine-2-carboxamide], 7.26; to `CN1CCN(CC(=O)N2CCC3(CC2)CC3CNC(=O)c2cc3ccncc3o2)CC1` (stereo not shown) [Example 30, N-[[6-[2-(4-methylpiperazin-1-yl)acetyl]-6-azaspiro[2.5]octan-2-yl]methyl]furo[2,3-c]pyridine-2-carboxamide], 6.21. Still for that read-out and setting: to `CC(=O)N1CCN(CC(=O)N2CCC3(CC2)CC3CNC(=O)c2cc3ccncc3o2)CC1` (stereo not shown) [Example 95, N-[[6-[2-(4-acetylpiperazin-1-yl)acetyl]-6-azaspiro[2.5]octan-2-yl]methyl]furo[2,3-c]pyridine-2-carboxamide] belongs 5.70; to `O=C(NCC1CC12CCN(C(=O)c1cnn3ccccc13)CC2)c1cc2ccncc2o1` (stereo not shown) [Example 316, N-[[6-(pyrazolo[1,5-a]pyridine-3-carbonyl)-6-azaspiro[2.5]octan-2-yl]methyl]furo[2,3-c]pyridine-2-carboxamide], 5.70; to `N#Cc1ccccc1CC(=O)N1CCC2(CC1)CC2CNC(=O)N1Cc2ccncc2C1` (stereo not shown) [Example 357, N-[[6-[2-(2-cyanophenyl)acetyl]-6-azaspiro[2.5]octan-2-yl]methyl]-1,3-dihydropyrrolo[3,4-c]pyridine-2-carboxamide], 7.97. Take `Cc1ccncc1C(=O)N1CCC2(CC1)CC2CNC(=O)c1cc2ccncc2o1` (stereo not shown) [Example 120, N-[[6-(4-methylpyridine-3-carbonyl)-6-azaspiro[2.5]octan-2-yl]methyl]furo[2,3-c]pyridine-2-carboxamide]: the pIC50 was 7.03. For the compound `Cc1nc(C)c(C(=O)N2CCC3(CC2)CC3CNC(=O)c2cc3cnccc3[nH]2)o1` (stereo not shown) [Example 370, N-[[6-(2,4-dimethyloxazole-5-carbonyl)-6-azaspiro[2.5]octan-2-yl]methyl]-1H-pyrrolo[3,2-c]pyridine 2-carboxamide], the pIC50 was 6.94. `Cc1cc(CC(=O)N2CCC3(CC2)CC3CNC(=O)c2cc3ccncc3o2)on1` (stereo not shown) [Example 34, N-[[6-[2-(3-methylisoxazol-5-yl)acetyl]-6-azaspiro[2.5]octan-2-yl]methyl]furo[2,3-c]pyridine-2-carboxamide]: the pIC50 was 6.42. As for `Cn1nccc1C(=O)N1CCC2(CC1)CC2CNC(=O)c1cc2ccncc2o1` (stereo not shown) [Example 107, N-[[6-(2-methylpyrazole-3-carbonyl)-6-azaspiro[2.5]octan-2-yl]methyl]furo[2,3-c]pyridine-2-carboxamide], the pIC50 is 5.70. On the same count and under the same terms, to `CC1(NC(=O)N2CCC3(CC2)CC3CNC(=O)N2Cc3ccncc3C2)COC1` (stereo not shown) [Example 361, N-[[6-[(3-methyloxetan-3-yl)carbamoyl]-6-azaspiro[2.5]octan-2-yl]methyl]-1,3-dihydropyrrolo[3,4-c]pyridine-2-carboxamide] belongs 7.25. Regarding `Cc1nn(C)cc1C(=O)N1CCC2(CC1)CC2CNC(=O)c1cc2ccncc2o1` (stereo not shown) [Example 335, N-[[6-(1,3-dimethylpyrazole-4-carbonyl)-6-azaspiro[2.5]octan-2-yl]methyl]furo[2,3-c]pyridine-2-carboxamide], the pIC50 is 6.23. As to `O=C(CC1CCCCC1)N1CCC2(CC1)CC2CNC(=O)N1Cc2ccncc2C1` (stereo not shown) [Example 196, N-[[6-(2-cyclohexylacetyl)-6-azaspiro[2.5]octan-2-yl]methyl]-1,3-dihydropyrrolo[3,4-c]pyridine-2-carboxamide], the pIC50 is 8.44.

`CCn1cc(C(=O)N2CCC3(CC2)CC3CNC(=O)c2cc3ccncc3o2)cn1` (stereo not shown) [Example 126, N-[[6-(1-ethylpyrazole-4-carbonyl)-6-azaspiro[2.5]octan-2-yl]methyl]furo[2,3-c]pyridine-2-carboxamide]: the pIC50 was 6.08. On the same count and under the same terms, to `Cc1cc(C)n(CCC(=O)N2CCC3(CC2)CC3CNC(=O)c2cc3ccncc3o2)n1` (stereo not shown) [Example 63, N-[[6-[3-(3,5-dimethylpyrazol-1-yl)propanoyl]-6-azaspiro[2.5]octan-2-yl]methyl]furo[2,3-c]pyridine-2-carboxamide] belongs 5.86. Consider `CC(C)(C)OC(=O)N1CCC2(CC1)CC2CNC(=O)N1Cc2cnc(N)cc2C1` (stereo not shown) [Example 406], for which the pIC50 is 5.70. Take `O=C(NCC1CC12CCN(C(=O)c1n[nH]c3cc(F)ccc13)CC2)c1cc2ccncc2o1` (stereo not shown) [Example 312, N-[[6-(6-fluoro-1H-indazole-3-carbonyl)-6-azaspiro[2.5]octan-2-yl]methyl]furo[2,3-c]pyridine-2-carboxamide]: the pIC50 is 8.02. On the same count and under the same terms, to `O=C(NCC1CC12CCN(C(=O)c1cnccc1C(F)(F)F)CC2)N1Cc2ccncc2C1` (stereo not shown) [Example 398, N-[[6-[4-(trifluoromethyl]pyridine-3-carbonyl]-6-azaspiro[2.5]octan-2-yl]methyl]-1,3-dihydropyrrolo[3,4-c]pyridine-2-carboxamide] belongs 9.14.

With `CN1CCN(Cc2cccc(C(=O)N3CCC4(CC3)CC4CNC(=O)c3cc4ccncc4o3)c2)CC1` (stereo not shown) [Example 88, N-[[6-[3-[(4-methylpiperazin-1-yl)methyl]benzoyl]-6-azaspiro[2.5]octan-2-yl]methyl]furo[2,3-c]pyridine-2-carboxamide], the pIC50 is 8.01. Same read-out and setting: to `Cc1cc(C(=O)N2CCC3(CC2)CC3CNC(=O)c2cc3ccncc3o2)no1` (stereo not shown) [Example 117, N-[[6-(5-methylisoxazole-3-carbonyl)-6-azaspiro[2.5]octan-2-yl]methyl]furo[2,3-c]pyridine-2-carboxamide] belongs 6.12; to `O=C(NCC1CC12CCN(C(=O)Cc1cccnc1)CC2)c1cc2cnccc2[nH]1` (stereo not shown) [Example 277, N-[[6-[2-(3-pyridyl)acctyl]-6-azaspiro[2.5]octan-2-yl]methyl]-1H-pyrrolo[3,2-c]pyridine-2-carboxamide], 6.12; to `O=C(NCC1CC12CCN(C(=O)c1ccc(-c3ncn[nH]3)cc1)CC2)c1cc2ccncc2o1` (stereo not shown) [Example 254, N-[[6-(4-(1H-1,2,4-triazol-5-yl)benzoyl]-6-azaspiro[2.5]octan-2-yl]methyl]furo[2,3-c]pyridine-2-carboxamide], 7.89.

The test is the same for the next values; noted with them: Homo sapiens; A2780 cells, 72 hours, SRB; read-out: Cell Proliferation (IC50).
Consider `N#Cc1ccc(CC(=O)N2CCC3(CC2)CC3CNC(=O)N2Cc3ccncc3C2)cc1` (stereo not shown) [Example 207, N-[[6-[2-(4-cyanophenyl)acetyl]-6-azaspiro[2.5]octan-2-yl]methyl]-1,3-dihydropyrrolo[3,4-c]pyridine-2-carboxamide], for which the pIC50 was 6.87.
